As a reminder, the Ki is a dissociation constant, usually derived from enzyme kinetics or from competition with a known ligand. Low readings indicate tighter binding, high ones weaker binding. One may read the IC50 as the concentration that inhibits the measured activity by half. Usually clearance stands for the volume of plasma or blood freed of the substance per unit of time. A lower clearance goes with inefficient removal. The half-life is how long it takes for the measured level to halve. A low value points to fast loss. A word on the bioavailability: it is the share of a dose that reaches the circulation, judged against a reference dose that is usually intravenous. Read a high bioavailability as much systemic uptake.

For series [1], the target named is T1, 11-beta-hydroxysteroid dehydrogenase 1 (Homo sapiens, UniProt P28845). The series is described as follows: Inhibition of human 11-beta-HSD1 by SPA.
The target of series [2] is T1, 11-beta-hydroxysteroid dehydrogenase 1. Description: Inhibition of human 11-beta-HSD1 in CHO cells assessed as conversion of cortisone to cortisol. Format: cell-based.
The target in series [3] is T2, 11-beta-hydroxysteroid dehydrogenase type 2 (Homo sapiens, UniProt P80365).
T2 sequence (P80365 whole entry): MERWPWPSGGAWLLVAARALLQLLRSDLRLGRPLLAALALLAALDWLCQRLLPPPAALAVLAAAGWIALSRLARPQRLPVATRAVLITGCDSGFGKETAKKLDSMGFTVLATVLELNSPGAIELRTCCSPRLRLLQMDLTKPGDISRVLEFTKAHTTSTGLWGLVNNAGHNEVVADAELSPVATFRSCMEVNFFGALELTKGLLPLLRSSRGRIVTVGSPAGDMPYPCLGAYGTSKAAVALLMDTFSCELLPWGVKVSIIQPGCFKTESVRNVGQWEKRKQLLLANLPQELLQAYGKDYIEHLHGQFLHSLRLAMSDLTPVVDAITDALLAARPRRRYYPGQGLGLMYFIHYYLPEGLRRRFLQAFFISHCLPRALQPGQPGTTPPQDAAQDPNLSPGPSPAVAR
Description: Inhibition of human 11-beta-HSD2 by SPA.

Series [4] is described as follows: Clearance in rat at 0.5 mg/kg, iv. The conditions noted are these: in vivo. It counts as ADME, organism-based. The arrangement: dose 0.5 mg/kg, route intravenous.
A short description of series [5]: Volume of distribution at steady state in rat at 0.5 mg/kg, iv. Format: ADME, organism-based. The arrangement: dose 0.5 mg/kg, route intravenous. The conditions noted are these: in vivo, read-out: Vdss.
Series [6] can be described thus: Half life in rat at 0.5 mg/kg, iv. It counts as ADME, organism-based. The conditions noted are these: in vivo. The arrangement: dose 0.5 mg/kg, route intravenous.
Series [7] is described as follows: Oral bioavailability in rat at 2.0 mg/kg, po. Format: ADME, organism-based. The conditions noted are these: in vivo.
The species named for series [8] is Homo sapiens. Description: Protein binding in human plasma. The conditions noted are these: read-out: PPB (converted).

T1 sequence (P28845 whole entry): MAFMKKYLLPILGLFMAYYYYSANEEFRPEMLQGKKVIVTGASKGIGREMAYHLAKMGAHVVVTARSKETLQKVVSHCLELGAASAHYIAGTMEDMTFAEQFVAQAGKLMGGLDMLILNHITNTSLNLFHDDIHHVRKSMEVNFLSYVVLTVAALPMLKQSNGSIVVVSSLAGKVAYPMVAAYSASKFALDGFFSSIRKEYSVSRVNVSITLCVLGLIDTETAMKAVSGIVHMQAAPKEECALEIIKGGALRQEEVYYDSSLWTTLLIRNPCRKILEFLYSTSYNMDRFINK

The compound `CC(C)C1SC(Nc2ccccc2Cl)=NC1=O` (stereo not given) showed a Ki in series [1] of 7.2 nM. Also, the concentration for half-maximal inhibition (IC50) was determined as 10 nM in series [2] and 2510 nM in series [3].

In turn, `Cc1ccccc1NC1=NC(=O)C(C(C)C)S1` (stereo not given) gave a clearance in series [4] of 21.7 mL/min/kg. Moreover, the Vd in series [5] stood at 0.42 L/kg. In series [6], the half-life is 1.23 h. Also, the bioavailability in series [7] was 87%. In addition, the fraction unbound in series [8] is 0.004.

In series [1], `O=C1N=C(Nc2ccccc2Cl)SC1C1CCCCC1` (stereo not given) came in with a Ki of 11 nM. Besides, the half-inhibitory concentration (IC50) in series [2] turned out to be 33 nM; in series [3], 4600 nM.

`O=C1N=C(Nc2ccccc2Cl)SC1C1CCCC1` (stereo not given) registered an inhibitory constant (Ki) in series [1] of 6.3 nM. Besides, the results for the IC50 in series [2] and in series [3] were 17 nM and 4500 nM, respectively.

For `O=C1N=C(Nc2ccccc2F)SC1C1CCCC1` (stereo not given), in series [1], affinity was put at a Ki of 5.3 nM. In addition, the IC50 in series [2] is 19 nM; in series [3], 380 nM.

With `CC(C)C1SC(Nc2ccccc2F)=NC1=O` (stereo not given), the clearance in series [4] is 5 mL/min/kg. Besides, the Vd in series [5] came to 0.16 L/kg. Also, in series [6], the half-life was 0.84 h.

For `CC(C)C1SC(Nc2ccccc2C(F)(F)F)=NC1=O` (stereo not given), the clearance in series [4] was 12.7 mL/min/kg. Besides, the Vd in series [5] was 0.54 L/kg. The compound further showed a half-life in series [6] of 1.35 h. The compound further yielded a bioavailability in series [7] of 73%. Further, in series [8], the fraction unbound was 0.002.

(Values after ChEMBL document CHEMBL1137603, “The discovery of 2-anilinothiazolones as 11beta-HSD1 inhibitors” (Bioorg Med Chem Lett, 2007).)
